Measurements as given in paper PMC9284540 (Journal of Molecular Biology, 2022).

Assays:
[1] = molecular target: T1, SARS-CoV-2^A358V/F360N MD (Severe acute respiratory syndrome coronavirus 2, UniProt P0DTD1, A1176V/F1178N); type: biochemical
[2] = molecular target: T2, SARS-CoV-2^F360N/D361S MD (Severe acute respiratory syndrome coronavirus 2, UniProt P0DTD1, D1179S/F1178N); type: binding
[3] = molecular target: T1, SARS-CoV-2^A358V/F360N MD; type: binding
[4] = molecular target: T2, SARS-CoV-2^F360N/D361S MD; type: biochemical

## N#C[C@@]1(c2ccc3c(N)ncnn23)O[C@H](CO)[C@@H](O)[C@H]1O [GS-441524]
[1]
  Initial substrate decay rate k: 0.127 ± 0.01 µM/min
  decrease of the k value vs free form: 33.2%
[2]
  exchange regime on NMR time scale: fast exchange regime
[3]
  exchange regime on NMR time scale: fast exchange regime
[4]
  Initial substrate decay rate k: 0.160 ± 0.007 µM/min
  decrease of the k value vs free form: 24.9%
